{"source": "paper PMC9851200", "about": "“Multiparameter phenotypic screening for endogenous TFEB and TFE3 translocation identifies novel chemical series modulating lysosome function” (Autophagy, 2022)", "assay_in_all_cases": "biochemical", "assay_type_in_all_cases": "binding", "key": {"[1]": {"molecular_target": "T1, cellular kinases of SH-SY5Y cells (Homo sapiens, UniProt Q9BYT3)", "T1 construct": "endogenous in cells; host or cells: SH-SY5Y", "conditions": "2µM; SH-SY5Y cells; Labeling Site Lys2; DLKLENIMVK; read-out: KiNativ in-cell binding, % Inhibition, STK33", "description": "(§1) As KINOMEscan is an in vitro assay, and as different cell types have variable kinase expression profiles we sought to determine the kinase binding profile in our SH-SY5Y TFEB-relocalization cell model. […] Bound kinases were pulled down and analyzed by mass spectrometry to determine the in situ kinase binding profile for each compound."}, "[2]": {"molecular_target": "cellular kinases of SH-SY5Y cells (Homo sapiens, UniProt Q13555)", "conditions": "2µM; SH-SY5Y cells; Labeling Site Lys1; TSTQEYAAKIINTK; read-out: KiNativ in-cell binding, % Inhibition, CaMK2g", "description": "as §1"}, "[3]": {"molecular_target": "cellular kinases of SH-SY5Y cells (Homo sapiens, UniProt P50613)", "conditions": "2µM; SH-SY5Y cells; Labeling Site Lys2; DLKPNNLLLDENGVLK; read-out: KiNativ in-cell binding, % Inhibition, CDK7", "description": "as §1"}, "[4]": {"molecular_target": "cellular kinases of SH-SY5Y cells (Homo sapiens, UniProt P24941)", "conditions": "2µM, SH-SY5Y cells", "description": "as §1"}, "[5]": {"molecular_target": "T2, cellular kinases of SH-SY5Y cells (Homo sapiens, UniProt P51956)", "T2 construct": "endogenous in cells; host or cells: SH-SY5Y", "T2 sequence (P51956 whole entry)": "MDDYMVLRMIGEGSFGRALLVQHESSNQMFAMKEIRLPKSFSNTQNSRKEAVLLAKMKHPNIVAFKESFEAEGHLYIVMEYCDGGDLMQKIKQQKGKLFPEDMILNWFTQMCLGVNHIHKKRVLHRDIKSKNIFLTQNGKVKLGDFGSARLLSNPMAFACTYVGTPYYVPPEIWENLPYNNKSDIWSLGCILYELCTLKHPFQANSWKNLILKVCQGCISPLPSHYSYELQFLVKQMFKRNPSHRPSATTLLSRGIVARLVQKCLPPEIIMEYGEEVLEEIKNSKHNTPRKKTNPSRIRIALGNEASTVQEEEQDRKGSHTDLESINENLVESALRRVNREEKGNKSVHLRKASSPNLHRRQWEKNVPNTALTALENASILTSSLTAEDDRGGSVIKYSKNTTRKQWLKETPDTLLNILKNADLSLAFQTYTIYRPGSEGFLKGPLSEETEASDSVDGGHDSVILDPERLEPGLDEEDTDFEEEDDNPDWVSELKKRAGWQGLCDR", "conditions": "2µM; SH-SY5Y cells; Labeling Site Activation Loop; SKNIFLTQNGK; read-out: KiNativ in-cell binding, % Inhibition, NEK3", "description": "as §1"}, "[6]": {"molecular_target": "cellular kinases of SH-SY5Y cells (Homo sapiens, UniProt P43405)", "description": "as §1"}, "[7]": {"molecular_target": "T3, cellular kinases of SH-SY5Y cells (Homo sapiens, UniProt O75385)", "T3 construct": "endogenous in cells; host or cells: SH-SY5Y", "conditions": "2µM; SH-SY5Y cells; Labeling Site Lys2; DLKPQNILLSNPAGR; read-out: KiNativ in-cell binding, % Inhibition, ULK1", "description": "as §1"}, "[8]": {"molecular_target": "cellular kinases of SH-SY5Y cells (Homo sapiens, UniProt Q13163)", "sequence (Q13163 whole entry)": "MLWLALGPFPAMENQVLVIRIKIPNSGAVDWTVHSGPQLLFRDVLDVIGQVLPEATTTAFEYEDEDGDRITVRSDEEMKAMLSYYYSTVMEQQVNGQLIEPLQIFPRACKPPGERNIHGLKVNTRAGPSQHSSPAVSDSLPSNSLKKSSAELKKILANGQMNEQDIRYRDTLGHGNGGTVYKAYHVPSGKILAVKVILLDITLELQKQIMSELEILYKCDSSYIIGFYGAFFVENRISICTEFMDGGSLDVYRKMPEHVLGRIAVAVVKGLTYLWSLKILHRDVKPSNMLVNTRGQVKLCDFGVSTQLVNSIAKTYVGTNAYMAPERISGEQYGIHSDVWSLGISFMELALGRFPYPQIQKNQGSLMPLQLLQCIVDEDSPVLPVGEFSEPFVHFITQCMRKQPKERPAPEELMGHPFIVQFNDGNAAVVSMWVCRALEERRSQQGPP", "conditions": "2µM; SH-SY5Y cells; Labeling Site Lys2; DVKPSNMLVNTR; read-out: KiNativ in-cell binding, % Inhibition, MAP2K5", "description": "as §1"}, "[9]": {"molecular_target": "cellular kinases of SH-SY5Y cells (Homo sapiens, UniProt P06493)", "conditions": "2µM; SH-SY5Y cells; Labeling Site Lys2; DLKPQNLLIDDK; read-out: KiNativ in-cell binding, % Inhibition, CDK1/CDC2", "description": "as §1"}, "[10]": {"molecular_target": "cellular kinases of SH-SY5Y cells (Homo sapiens, UniProt Q7KZI7)", "conditions": "2µM; SH-SY5Y cells; Labeling Site Lys1; EVAVKIIDKTQLNSSSLQK; read-out: KiNativ in-cell binding, % Inhibition, MARK2", "description": "as §1"}, "[11]": {"molecular_target": "cellular kinases of SH-SY5Y cells (Homo sapiens, UniProt P78368)", "conditions": "2µM; SH-SY5Y cells; Labeling Site Lys2; DVKPENFLVGRPGTK; read-out: KiNativ in-cell binding, % Inhibition, CSNK1G2/CK1g2", "description": "as §1"}, "[12]": {"molecular_target": "cellular kinases of SH-SY5Y cells (Homo sapiens, UniProt Q00534)", "conditions": "2µM; SH-SY5Y cells; labeling site Lys2; peptide DLKPQNILVTSSGQIK", "description": "as §1"}, "[13]": {"molecular_target": "cellular kinases of SH-SY5Y cells (Homo sapiens, UniProt P42338)", "sequence (P42338 whole entry)": "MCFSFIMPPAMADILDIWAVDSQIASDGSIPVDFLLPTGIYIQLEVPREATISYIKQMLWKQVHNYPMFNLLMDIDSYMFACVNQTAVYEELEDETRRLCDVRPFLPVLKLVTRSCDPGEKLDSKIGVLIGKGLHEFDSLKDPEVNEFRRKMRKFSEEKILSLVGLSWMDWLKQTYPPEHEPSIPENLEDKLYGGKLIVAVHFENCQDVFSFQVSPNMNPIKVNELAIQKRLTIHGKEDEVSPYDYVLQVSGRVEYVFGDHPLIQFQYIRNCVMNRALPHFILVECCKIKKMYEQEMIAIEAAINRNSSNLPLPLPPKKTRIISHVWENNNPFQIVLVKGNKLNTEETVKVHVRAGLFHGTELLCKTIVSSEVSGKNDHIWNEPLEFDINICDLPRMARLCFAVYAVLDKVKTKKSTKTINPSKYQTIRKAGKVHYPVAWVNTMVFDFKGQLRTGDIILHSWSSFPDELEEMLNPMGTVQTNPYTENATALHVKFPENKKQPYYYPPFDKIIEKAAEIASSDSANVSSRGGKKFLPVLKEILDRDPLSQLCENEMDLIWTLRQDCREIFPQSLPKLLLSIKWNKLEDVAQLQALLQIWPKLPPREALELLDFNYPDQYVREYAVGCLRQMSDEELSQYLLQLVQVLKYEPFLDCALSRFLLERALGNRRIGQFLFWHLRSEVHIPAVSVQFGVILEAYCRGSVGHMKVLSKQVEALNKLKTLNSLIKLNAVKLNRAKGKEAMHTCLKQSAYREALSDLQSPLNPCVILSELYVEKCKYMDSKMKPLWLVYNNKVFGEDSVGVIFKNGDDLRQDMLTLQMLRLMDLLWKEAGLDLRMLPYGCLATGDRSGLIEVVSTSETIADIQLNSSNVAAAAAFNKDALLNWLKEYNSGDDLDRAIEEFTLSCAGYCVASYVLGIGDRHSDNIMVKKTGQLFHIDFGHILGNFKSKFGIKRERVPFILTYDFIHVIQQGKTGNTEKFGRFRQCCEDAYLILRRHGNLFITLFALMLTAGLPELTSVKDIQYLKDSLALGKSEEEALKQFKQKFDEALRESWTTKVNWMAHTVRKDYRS", "conditions": "2µM; SH-SY5Y cells; Labeling Site ATP; VFGEDSVGVIFKNGDDLRQDMLTLQMLR; read-out: KiNativ in-cell binding, % Inhibition, PIK3CB", "description": "as §1"}, "[14]": {"molecular_target": "T4, cellular kinases of SH-SY5Y cells (Homo sapiens, UniProt Q13188)", "T4 construct": "endogenous in cells; host or cells: SH-SY5Y", "conditions": "2µM; SH-SY5Y cells; Labeling Site Lys1; ESGQVVAIKQVPVESDLQEIIK; read-out: KiNativ in-cell binding, % Inhibition, STK3/MST2", "description": "as §1"}, "[15]": {"molecular_target": "T5, cellular kinases of SH-SY5Y cells (Homo sapiens, UniProt Q14680)", "T5 construct": "endogenous in cells; host or cells: SH-SY5Y", "conditions": "2µM; SH-SY5Y cells; Labeling Site Lys2; DLKPENLLFDEYHK; read-out: KiNativ in-cell binding, % Inhibition, MELK", "description": "as §1"}, "[16]": {"molecular_target": "cellular kinases of SH-SY5Y cells (Homo sapiens, UniProt Q5S007)", "sequence (Q5S007 whole entry)": "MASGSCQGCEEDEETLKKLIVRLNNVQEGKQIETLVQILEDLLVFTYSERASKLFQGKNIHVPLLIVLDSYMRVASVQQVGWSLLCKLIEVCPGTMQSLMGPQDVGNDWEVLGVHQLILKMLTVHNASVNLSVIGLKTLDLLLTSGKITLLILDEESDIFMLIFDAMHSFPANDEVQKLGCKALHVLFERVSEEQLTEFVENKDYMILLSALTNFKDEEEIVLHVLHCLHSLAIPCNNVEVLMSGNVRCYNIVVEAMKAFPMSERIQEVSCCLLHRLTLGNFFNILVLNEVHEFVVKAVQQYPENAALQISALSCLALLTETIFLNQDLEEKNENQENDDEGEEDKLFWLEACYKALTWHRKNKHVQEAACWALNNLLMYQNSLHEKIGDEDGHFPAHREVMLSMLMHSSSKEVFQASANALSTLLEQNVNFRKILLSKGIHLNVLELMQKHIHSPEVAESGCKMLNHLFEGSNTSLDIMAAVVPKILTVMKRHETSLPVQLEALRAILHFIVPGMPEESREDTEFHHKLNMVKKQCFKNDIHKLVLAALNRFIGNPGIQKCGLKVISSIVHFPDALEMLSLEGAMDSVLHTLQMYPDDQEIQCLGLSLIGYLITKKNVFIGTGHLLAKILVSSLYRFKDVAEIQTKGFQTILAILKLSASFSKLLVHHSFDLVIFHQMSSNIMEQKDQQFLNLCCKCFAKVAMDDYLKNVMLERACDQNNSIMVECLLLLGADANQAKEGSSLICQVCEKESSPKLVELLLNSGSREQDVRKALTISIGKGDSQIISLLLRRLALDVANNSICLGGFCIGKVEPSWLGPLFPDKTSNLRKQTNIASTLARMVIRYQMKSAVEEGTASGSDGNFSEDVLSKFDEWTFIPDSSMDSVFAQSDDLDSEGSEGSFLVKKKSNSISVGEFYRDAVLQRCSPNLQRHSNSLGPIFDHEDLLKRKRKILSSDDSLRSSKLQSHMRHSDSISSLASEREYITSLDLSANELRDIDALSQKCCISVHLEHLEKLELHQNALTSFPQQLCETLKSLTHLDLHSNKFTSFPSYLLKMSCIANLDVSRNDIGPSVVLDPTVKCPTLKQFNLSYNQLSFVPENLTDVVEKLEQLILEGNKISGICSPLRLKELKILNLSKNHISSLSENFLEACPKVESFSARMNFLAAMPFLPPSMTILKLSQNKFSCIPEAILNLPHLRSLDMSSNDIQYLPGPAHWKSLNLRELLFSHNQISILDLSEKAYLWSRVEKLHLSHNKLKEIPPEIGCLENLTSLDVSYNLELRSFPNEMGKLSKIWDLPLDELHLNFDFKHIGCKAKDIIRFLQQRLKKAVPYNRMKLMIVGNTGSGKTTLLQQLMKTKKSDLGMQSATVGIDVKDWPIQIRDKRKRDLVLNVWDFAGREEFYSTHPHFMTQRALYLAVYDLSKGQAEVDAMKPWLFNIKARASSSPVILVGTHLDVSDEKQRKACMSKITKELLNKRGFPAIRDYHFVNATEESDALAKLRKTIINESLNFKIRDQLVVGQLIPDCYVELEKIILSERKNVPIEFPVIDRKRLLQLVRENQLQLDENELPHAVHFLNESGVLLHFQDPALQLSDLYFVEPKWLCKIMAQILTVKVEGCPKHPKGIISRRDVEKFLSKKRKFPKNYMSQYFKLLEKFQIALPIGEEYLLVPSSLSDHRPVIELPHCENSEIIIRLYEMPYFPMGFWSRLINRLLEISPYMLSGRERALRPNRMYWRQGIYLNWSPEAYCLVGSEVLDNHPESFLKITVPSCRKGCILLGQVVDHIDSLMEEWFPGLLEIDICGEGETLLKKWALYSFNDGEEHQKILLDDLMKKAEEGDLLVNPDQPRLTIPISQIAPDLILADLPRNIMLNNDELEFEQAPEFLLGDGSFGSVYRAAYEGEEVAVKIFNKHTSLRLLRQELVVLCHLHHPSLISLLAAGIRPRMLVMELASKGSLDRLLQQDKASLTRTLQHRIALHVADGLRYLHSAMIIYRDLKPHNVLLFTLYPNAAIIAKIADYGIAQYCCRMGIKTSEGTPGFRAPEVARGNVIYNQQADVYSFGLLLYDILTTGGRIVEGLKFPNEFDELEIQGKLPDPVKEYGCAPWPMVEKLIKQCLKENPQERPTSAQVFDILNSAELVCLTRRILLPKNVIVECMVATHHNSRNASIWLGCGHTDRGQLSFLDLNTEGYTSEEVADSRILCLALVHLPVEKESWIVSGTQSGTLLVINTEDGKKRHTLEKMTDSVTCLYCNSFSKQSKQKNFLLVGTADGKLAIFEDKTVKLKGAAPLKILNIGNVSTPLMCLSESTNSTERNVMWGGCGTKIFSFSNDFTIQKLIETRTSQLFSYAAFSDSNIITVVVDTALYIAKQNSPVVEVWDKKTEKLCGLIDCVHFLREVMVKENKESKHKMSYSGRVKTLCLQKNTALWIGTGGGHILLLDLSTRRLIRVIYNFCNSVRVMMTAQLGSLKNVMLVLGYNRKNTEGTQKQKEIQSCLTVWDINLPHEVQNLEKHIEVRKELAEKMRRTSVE", "conditions": "2µM; SH-SY5Y cells; Labeling Site Lys2; DLKPHNVLLFTLYPNAAIIAK; read-out: KiNativ in-cell binding, % Inhibition, LRRK2", "description": "as §1"}, "[17]": {"molecular_target": "T6, cellular kinases of SH-SY5Y cells (Homo sapiens, UniProt P43403)", "T6 construct": "endogenous in cells; host or cells: SH-SY5Y", "conditions": "2µM; SH-SY5Y cells; Labeling Site Activation Loop; SAGKWPLK; read-out: KiNativ in-cell binding, % Inhibition, ZAP70", "description": "as §1"}, "[18]": {"molecular_target": "T7, cellular kinases of SH-SY5Y cells (Homo sapiens, UniProt Q00537)", "T7 construct": "endogenous in cells; host or cells: SH-SY5Y", "T7 sequence (Q00537 whole entry)": "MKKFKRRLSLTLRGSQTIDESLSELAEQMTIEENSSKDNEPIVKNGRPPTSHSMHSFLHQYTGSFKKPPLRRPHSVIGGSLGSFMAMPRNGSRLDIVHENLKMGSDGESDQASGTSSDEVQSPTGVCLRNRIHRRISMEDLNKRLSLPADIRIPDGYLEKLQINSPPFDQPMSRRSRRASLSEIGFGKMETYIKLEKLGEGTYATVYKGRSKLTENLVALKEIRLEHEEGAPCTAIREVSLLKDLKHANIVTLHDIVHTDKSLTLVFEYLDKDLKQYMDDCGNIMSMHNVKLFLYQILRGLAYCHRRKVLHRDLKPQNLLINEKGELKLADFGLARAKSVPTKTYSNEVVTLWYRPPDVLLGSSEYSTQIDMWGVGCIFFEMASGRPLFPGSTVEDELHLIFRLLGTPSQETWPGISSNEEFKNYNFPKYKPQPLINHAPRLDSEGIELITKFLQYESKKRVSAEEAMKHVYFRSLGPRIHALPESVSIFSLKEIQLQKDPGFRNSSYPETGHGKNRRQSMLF", "conditions": "2µM; SH-SY5Y cells; Labeling Site Lys2; DLKPQNLLINEK; read-out: KiNativ in-cell binding, % Inhibition, CDK17/PCTAIRE2", "description": "as §1"}, "[19]": {"molecular_target": "cellular kinases of SH-SY5Y cells (Homo sapiens, UniProt P27361)", "conditions": "2µM; SH-SY5Y cells; Labeling Site Lys2; DLKPSNLLINTTCDLK; read-out: KiNativ in-cell binding, % Inhibition, MAPK3/Erk1", "description": "as §1"}, "[20]": {"molecular_target": "cellular kinases of SH-SY5Y cells (Homo sapiens, UniProt Q8TDX7)", "conditions": "2µM; SH-SY5Y cells; labeling site Lys1; peptide AACLLDGVPVALKK", "description": "as §1"}}, "note": "Like-named read-outs stand apart in the source and are kept apart here.", "data": [{"molecule": "Cc1cccc(-c2nc(Nc3ccc4ncsc4c3)c3ccccc3n2)n1", "note": "[NK140]", "values": [{"measurement": "inhibition at 2 µM", "setting": "[1]", "value": -1.4, "unit": "%"}, {"measurement": "inhibition at 2 µM", "setting": "[2]", "value": 30.4, "unit": "%"}, {"measurement": "inhibition at 2 µM", "setting": "[3]", "value": 56.5, "unit": "%"}, {"measurement": "inhibition at 2 µM", "setting": "[4]; Labeling Site Lys1, LTGEVVALKK, read-out: KiNativ in-cell binding, % Inhibition, CDK2", "value": 21.6, "unit": "%"}, {"measurement": "KiNativ in-cell binding, CDK2", "setting": "[4]; labeling site Lys2, peptide DLKPQNLLINTEGAIK", "value": 6.0}, {"measurement": "inhibition at 2 µM", "setting": "[5]", "value": -13.4, "unit": "%"}, {"measurement": "KiNativ in-cell binding, SYK", "setting": "[6]", "value": -121.1}, {"measurement": "inhibition at 2 µM", "setting": "[6]; 2µM, SH-SY5Y cells, Labeling Site Activation Loop, AQTHGKWPVK, read-out: KiNativ in-cell binding, % Inhibition, SYK", "value": 0.443, "unit": "%"}, {"measurement": "KiNativ in-cell binding, SYK", "setting": "[6]; 2µM, SH-SY5Y cells, labeling site Activation Loop, peptide ISDFGLSKALR", "value": -15.0}, {"measurement": "inhibition at 2 µM", "setting": "[7]", "value": -13.4, "unit": "%"}, {"measurement": "inhibition at 2 µM", "setting": "[8]", "value": -14.7, "unit": "%"}, {"measurement": "inhibition at 2 µM", "setting": "[9]", "value": -2.3, "unit": "%"}, {"measurement": "inhibition at 2 µM", "setting": "[10]", "value": 10.5, "unit": "%"}, {"measurement": "inhibition at 2 µM", "setting": "[11]", "value": 1.8, "unit": "%"}, {"measurement": "KiNativ in-cell binding, CDK6", "setting": "[12]", "value": -30.7}, {"measurement": "inhibition at 2 µM", "setting": "[13]", "value": -11.4, "unit": "%"}, {"measurement": "inhibition at 2 µM", "setting": "[14]", "value": 31.6, "unit": "%"}, {"measurement": "inhibition at 2 µM", "setting": "[15]", "value": -40.7, "unit": "%"}, {"measurement": "inhibition at 2 µM", "setting": "[16]", "value": 6, "unit": "%"}, {"measurement": "inhibition at 2 µM", "setting": "[17]", "value": -3, "unit": "%"}, {"measurement": "inhibition at 2 µM", "setting": "[18]", "value": 13.2, "unit": "%"}, {"measurement": "inhibition at 2 µM", "setting": "[19]", "value": 32.4, "unit": "%"}, {"measurement": "KiNativ in-cell binding, NEK7", "setting": "[20]", "value": -3.8}]}]}
